Test results from BindingDB's records for doi:10.1002/1098-2396(20001215)38:4 (University of North Texas, 2000).

Target: D(2) dopamine receptor (Rattus norvegicus, UniProt P61169)
Sequence (P61169 whole entry): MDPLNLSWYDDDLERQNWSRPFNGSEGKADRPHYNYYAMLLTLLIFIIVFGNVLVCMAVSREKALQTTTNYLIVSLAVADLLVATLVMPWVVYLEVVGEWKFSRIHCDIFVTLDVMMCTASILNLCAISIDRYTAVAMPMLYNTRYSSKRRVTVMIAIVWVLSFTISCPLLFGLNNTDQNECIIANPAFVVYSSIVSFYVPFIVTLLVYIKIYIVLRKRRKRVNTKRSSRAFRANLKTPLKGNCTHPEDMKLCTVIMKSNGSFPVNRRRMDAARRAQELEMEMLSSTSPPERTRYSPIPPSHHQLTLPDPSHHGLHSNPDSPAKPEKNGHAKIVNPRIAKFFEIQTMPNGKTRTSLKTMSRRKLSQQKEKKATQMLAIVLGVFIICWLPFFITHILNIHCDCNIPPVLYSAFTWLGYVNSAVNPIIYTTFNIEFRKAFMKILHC

| Structure (SMILES) | Ki |
| --- | --- |
| O=C(c1ccc(F)cc1)C1CCN(CCn2c(=O)[nH]c3ccccc3c2=O)CC1 [3-(2-{4-[(4-fluorophenyl)carbonyl]piperidin-1-yl}ethyl)-1,2,3,4-tetrahydroquinazoline-2,4-dione] | 2710 nM |
| CC(C)NCC(O)COc1cccc2[nH]ccc12 (stereo not drawn) [LB-46] | > 10000 nM |
| Cc1ccc(N(CC2=NCCN2)c2cccc(O)c2)cc1 [SMR000059054] | 1770 nM |
